Data set [1] can be described thus: crystal size by SEM. The data set is classed as physicochemical. The source says: In contrast, the crystals of monohydrate form 2 are much smaller, and in a narrower size range, than those of monohydrate form 1, typically 5 μm or less in edge length.
Data set [2] is described as follows: stability / hygroscopicity on standing at ambient conditions. The data set is classed as physicochemical. Conditions: for hygroscopicity / stability at room temperature and humidity: standard room temperature and humidity; for stability under ambient conditions: thermogravimetric analysis after 5 hours standing at ambient conditions. As to the method:
The partially dehydrated material was allowed to stand for about 5 hours.

The conditions of data set [3]: cited from earlier work.

For `NCCCC[C@H](N[C@@H](CCc1ccccc1)C(=O)O)C(=O)N1CCC[C@H]1C(=O)O` [monohydrate lisinopril form 1, 1-(N^2-[(S)-1-carboxy-3-phenylpropyl]-L-lysyl)-L-proline], the “crystal size (length / edge length)” value in data set [1] (listed as monohydrate form 1) is given as 50 to 500 μm. Moreover, in data set [2], the “hygroscopicity / stability at room temperature and humidity” value is “stable at a standard room temperature and humidity”; the “stability under ambient conditions” value is “stable under ambient conditions”.
For `NCCCC[C@H](N[C@@H](CCc1ccccc1)C(=O)O)C(=O)N1CCC[C@H]1C(=O)O` [lisinopril, 1-(N^2-[(S)-1-carboxy-3-phenylpropyl]-L-lysyl)-L-proline], the “time to peak serum concentrations” value in data set [3] (following oral administration) was at most 7 h. Further, the “effective half-life of accumulation” value in data set [3] (on multiple dosing) is “about 12.6 hours”.
Take `NCCCC[C@H](N[C@@H](CCc1ccccc1)C(=O)O)C(=O)N1CCC[C@H]1C(=O)O.O` [Preparation 3]: in data set [2], the “hygroscopicity / stability at room temperature and humidity” value is given as “strongly hygroscopic”; the “stability under ambient conditions” value is “regained the lost weight and to have become a dihydrate”.
For `NCCCC[C@H](N[C@@H](CCc1ccccc1)C(=O)O)C(=O)N1CCC[C@H]1C(=O)O` [monohydrate lisinopril form 2, 1-(N^2-[(S)-1-carboxy-3-phenylpropyl]-L-lysyl)-L-proline], the “crystal size (length / edge length)” value in data set [1] (listed as monohydrate form 2) was at most 5 μm.

These data come from US6468976B1 (AstraZeneca AB, priority 2001, dated 2002).
